Here are results for 14 compounds from patent publication US8163921B2, “Hepatitis C virus inhibitors” (Bristol-Myers Squibb Company, priority 2008, dated 2012).

Like-named read-outs stand apart in the source and are kept apart here.

In assay [1] the test system is HCV replicon in HUH-7 cells. Nature of the assay: HCV replicon FRET assay. Format: cell-based, HCV strain 1b. Particulars: Hepatitis C virus. The text has this: An HCV replicon whole cell system was established as described by Lohmann V, Korner F, Koch J, Herian U, Theilmann L, Bartenschlager R., Science 285(5424):110-3 (1999). This system enabled us to evaluate the effects of our HCV Protease compounds on HCV RNA replication. Briefly, using the HCV strain 1b sequence described in the Lohmann paper (Assession number:AJ238799), an HCV cDNA was synthesized by Operon Technologies, Inc. (Alameda, Calif.), and the full-length replicon was then assembled in plasmid pGem9zf(+) (Promega, Madison, Wis.) using standard molecular biology techniques. The replicon consists of (i) the HCV 5′ UTR fused to the first 12 amino acids of the capsid protein, (ii) the neomycin phosphotransferase gene (neo), (iii) the IRES from encephalomyocarditis virus (EMCV), and (iv) HCV NS3 to NS5B genes and the HCV 3′ UTR. Plasmid DNAs were linearized with ScaI and RNA transcripts were synthesized in vitro using the T7 MegaScript transcription kit (Ambion, Austin, Tex.) according to manufacturer's directions. In vitro transcripts of the eDNA were transfected into the human hepatoma cell line, HUH-7. […] Resulting cell lines were characterized for positive and negative strand RNA production and protein production over time.
The HCV replicon FRET assay was developed to monitor the inhibitory effects of compounds described in the disclosure on HCV viral replication. HUH-7 cells, constitutively expressing the HCV replicon, were grown in Dulbecco's Modified Eagle Media (DMEM) (Gibco-BRL) containing 10% Fetal calf serum (FCS) (Sigma) and 1 mg/ml G418 (Gibco-BRL). Cells were seeded the night before (1.5×10^4 cells/well) in 96-well tissue-culture sterile plates. Compound and no compound controls were prepared in DMEM containing 4% FCS, 1:100 Penicillin/Streptomysin (Gibco-BRL), 1:100 L-glutamine and 5% DMSO in the dilution plate (0.5% DMSO final concentration in the assay). Compound/DMSO mixes were added to the cells and incubated for 4 days at 37° C. After 4 days, cells were first assessed for cytotoxicity using alamar Blue (Trek Diagnotstic Systems) for a CC50 reading. The toxicity of compound (CC50) was determined by adding 1/10th volume of alamar Blue to the media incubating the cells. After 4 h, the fluorescence signal from each well was read, with an excitation wavelength at 530 nm and an emission wavelength of 580 nm, using the Cytofluor Series 4000 (Perspective Biosystems). Plates were then rinsed thoroughly with Phosphate-Buffered Saline (PBS) (3 times 150 μl).

Assay [2] concerns the target T1, HCV NS3/4A protease complex, BMS strain (UniProt P27958, C1454S/C1711G, species not given).
T1 construct: other: HCV NS3/4A enzyme assay; class symbols; numeric values; fused on or other part: three-lysine solubilising tail at the C-terminus of NS4A; purified on Ni-NTA from the pET21b vector (His tag implied)
The assay can be described thus: FRET peptide assay to monitor HCV NS3/4A proteolytic activity (BMS strain). It counts as biochemical, HCV genotype 1a. Particulars: read-out: IC50 Range, HCV NS3/4A enzyme assay. The text has this:
HCV NS3 protease complexes, derived from the BMS strain, H77 strain or J4L6S strain, were generated, as described below. These purified recombinant proteins were generated for use in a homogeneous assay (see below) to provide an indication of how effective compounds of the present disclosure would be in inhibiting HCV NS3 proteolytic activity.
Serum from an HCV-infected patient was obtained from Dr. T. Wright, San Francisco Hospital. An engineered full-length cDNA (compliment deoxyribonucleic acid) template of the HCV genome (BMS strain) was constructed from DNA fragments obtained by reverse transcription-PCR (RT-PCR) of serum RNA (ribonucleic acid) and using primers selected on the basis of homology between other genotype 1a strains. From the determination of the entire genome sequence, a genotype 1a was assigned to the HCV isolate according to the classification of Simmonds et al. (See P Simmonds, K A Rose, S Graham, S W Chan, F McOmish, B C Dow, E A Follett, P L Yap and H Marsden, J. Clin. Microbiol., 31(6), 1493-1503 (1993)). […] The infectious clones, H77 (1a genotype) and J4L6S (1b genotype) were obtained from R. Purcell (NIH) and the sequences are published in Genbank (AAB67036, see Yanagi, M., Purcell, R. H., Emerson, S. U. and Buldi, J. Proc. Natl. Acad. Sci. U.S.A. 94(16),8738-8743 (1997); AF054247, see Yanagi, M., St Claire, M., Shapiro, M., Emerson, S. U., Purcell, R. H. and Bukh, J, Virology 244 (1), 161-172. (1998)).
NS3/4A protease complex-containing fractions were pooled and loaded on a desalting column Superdex-S200 pre-equilibrated with buffer D (25 mM HEPES, pH 7.5, 20% glycerol, 300 mM NaCl, 0.2% TritonX-100, 10 mM βMB). Sample was loaded at a flow rate of 1 mL/min. NS3/4A protease complex-containing fractions were pooled and concentrated to approximately 0.5 mg/ml. The purity of the NS3/4A protease complexes, derived from the BMS, H77 and J4L6S strains, were judged to be greater than 90% by SDS-PAGE and mass spectrometry analyses. The enzyme was stored at −80° C., thawed on ice and diluted prior to use in assay buffer.
The purpose of this in vitro assay was to measure the inhibition of HCV NS3 protease complexes, derived from the BMS strain, H77 strain or J4L6S strain, as described above, by compounds of the present disclosure. This assay provides an indication of how effective compounds of the present disclosure would be in inhibiting HCV NS3 proteolytic activity.
In order to monitor HCV NS3/4A protease activity, an NS3/4A peptide substrate was used. The substrate was RET S1 (Resonance Energy Transfer Depsipeptide Substrate; AnaSpec, Inc. cat #22991)(FRET peptide), described by Taliani et al. in Anal. Biochem. 240(2):60-67 (1996). The sequence of this peptide is loosely based on the NS4A/NS4B natural cleavage site for the HCV NS3 protease except there is an ester linkage rather than an amide bond at the cleavage site. The peptide also contains a fluorescence donor, EDANS, near one end of the peptide and an acceptor, DABCYL, near the other end. The fluorescence of the peptide is quenched by […] resonance energy transfer (RET) between the donor and the acceptor, but as the NS3 protease cleaves the peptide the products are released from RET quenching and the fluorescence of the donor becomes apparent.
The peptide substrate was incubated with one of the three recombinant NS3/4A protease complexes, in the absence or presence of a compound of the present disclosure. The inhibitory effects of a compound were determined by monitoring the formation of fluorescent reaction product in real time using a Cytofluor Series 4000.
Assay buffer: 50 mM HEPES, pH 7.5; 0.15 M NaCl; 0.1% Triton; 15% Glycerol; 10 mM βME. Substrate: 2 μM final concentration (from a 2 mM stock solution in DMSO stored at −20° C.). HCV NS3/4A protease type 1a (1b), 2-3 nM final concentration (from a 5 μM stock solution in 25 mM HEPES, pH 7.5, 20% glycerol, 300 mM NaCl, 0.2% Triton-X100, 10 mM βME). […]

Where [3] appears, read: Huh-7, HCV replicon cell assay, numeric values, read-out: EC50 Range.

As to `C=C[C@@H]1C[C@]1(NC(=O)[C@@H]1C[C@@H](Oc2ncc(OC)c3ccc(Cl)cc23)CN1C(=O)[C@@H](Nc1nc(-c2ccc(F)c(F)c2)cs1)C(C)(C)C)C(=O)NS(=O)(=O)C1CC1` [Example 6, (2S,4R)-4-(7-chloro-4-methoxyisoquinolin-1-yloxy)-N-((1R,2S)-1-(cyclopropylsulfonylcarbamoyl)-2-vinylcyclopropyl)-1-((S)-2-(4-(3,4-difluorophenyl)thiazol-2-ylamino)-3,3-dimethylbutanoyl)pyrrolidine-2-carboxamide], the EC50 in assay [1] (Huh-7, read-out: EC50 Range) lay within 1 to 50 nM. Moreover, the IC50 in assay [2] (class symbols) was in the range of 1 to 20 nM.
`C=C[C@@H]1C[C@]1(NC(=O)[C@@H]1C[C@@H](Oc2ncc(OC)c3ccc(Cl)cc23)CN1C(=O)[C@@H](Nc1nc(-c2ccc(OC)cc2)cs1)C(C)(C)C)C(=O)NS(=O)(=O)C1CC1` [Example 7]: the concentration for a half-maximal effect (EC50) in assay [1] (Huh-7, read-out: EC50 Range) was 1 to 50 nM. In addition, the IC50 in assay [2] (class symbols) was 1 to 20 nM.
In the same order, the values of `C=C[C@@H]1C[C@]1(NC(=O)[C@@H]1C[C@@H](Oc2ncc(OC)c3ccc(Cl)cc23)CN1C(=O)[C@@H](Nc1nc(-c2ccc(OC(F)F)cc2)cs1)C(C)(C)C)C(=O)NS(=O)(=O)C1CC1` [Example 8] are 1 to 50 nM and 1 to 20 nM.
For the compound `C=C[C@@H]1C[C@]1(NC(=O)[C@@H]1C[C@@H](Oc2ncc(OC)c3ccc(Cl)cc23)CN1C(=O)[C@@H](Nc1nc(-c2ccccc2)c(C)s1)C(C)(C)C)C(=O)NS(=O)(=O)C1CC1` [Example 9, (2S,4R)-4-(7-chloro-4-methoxyisoquinolin-1-yloxy)-N-((1R,2S)-1-(cyclopropylsulfonylcarbamoyl)-2-vinylcyclopropyl)-1-((S)-3,3-dimethyl-2-(5-methyl-4-phenylthiazol-2-ylamino)butanoyl)pyrrolidine-2-carboxamide], in assay [1] (Huh-7, read-out: EC50 Range), the EC50 lay within 1 to 50 nM. Also, the concentration for half-maximal inhibition (IC50) in assay [2] (class symbols) was in the range of 1 to 20 nM.
In the same order, the values of `C=C[C@@H]1C[C@]1(NC(=O)[C@@H]1C[C@@H](Oc2ncc(OC)c3ccc(Cl)cc23)CN1C(=O)[C@@H](Nc1nc(-c2ccc(C(F)(F)F)cc2)cs1)C(C)(C)C)C(=O)NS(=O)(=O)C1CC1` [Example 10, (2S,4R)-4-(7-chloro-4-methoxyisoquinolin-1-yloxy)-N-((1R,2S)-1-(cyclopropylsulfonylcarbamoyl)-2-vinylcyclopropyl)-1-((S)-3,3-dimethyl-2-(4-(4-(trifluoromethyl)phenyl)thiazol-2-ylamino)butanoyl)pyrrolidine-2-carboxamide] are 1 to 50 nM and 1 to 20 nM.
In the case of `C=C[C@@H]1C[C@]1(NC(=O)[C@@H]1C[C@@H](Oc2ncc(OC)c3ccc(Cl)cc23)CN1C(=O)[C@@H](Nc1nc(-c2ccc3ccccc3c2)cs1)C(C)(C)C)C(=O)NS(=O)(=O)C1CC1` [Example 11], in assay [1] (Huh-7, read-out: EC50 Range), the EC50 was in the range of 1 to 50 nM. For the same compound, the IC50 in assay [2] (class symbols) lay within 1 to 20 nM.
As to `C=C[C@@H]1C[C@]1(NC(=O)[C@@H]1C[C@@H](Oc2ncc(OC)c3ccc(Cl)cc23)CN1C(=O)[C@@H](Nc1nc(-c2ccc(OC)cc2)c(CC)s1)C(C)(C)C)C(=O)NS(=O)(=O)C1CC1` [Example 12], the EC50 in assay [1] (Huh-7, read-out: EC50 Range) was in the range of 1 to 50 nM. The 50% inhibitory concentration (IC50) in assay [2] (class symbols) was 1 to 20 nM.
On to `C=C[C@@H]1C[C@]1(NC(=O)[C@@H]1C[C@@H](Oc2ncc(OC)c3ccc(Cl)cc23)CN1C(=O)[C@@H](Nc1nc(-c2ccc(F)cc2F)cs1)C(C)(C)C)C(=O)NS(=O)(=O)C1CC1` [Example 13], for which the EC50 in assay [1] (Huh-7, read-out: EC50 Range) lay within 1 to 50 nM. The 50% inhibitory concentration (IC50) in assay [2] (class symbols) is 1 to 20 nM.
On the same counts, the results for `C=C[C@@H]1C[C@]1(NC(=O)[C@@H]1C[C@@H](Oc2ncc(OC)c3ccc(Cl)cc23)CN1C(=O)[C@@H](Nc1nc(-c2ccccn2)cs1)C(C)(C)C)C(=O)NS(=O)(=O)C1CC1` [Example 14] are 1 to 50 nM and 1 to 20 nM.
On the same counts, the results for `C=C[C@@H]1C[C@]1(NC(=O)[C@@H]1C[C@@H](Oc2ncc(OC)c3ccc(Cl)cc23)CN1C(=O)[C@@H](Nc1nc(-c2cccnc2)cs1)C(C)(C)C)C(=O)NS(=O)(=O)C1CC1` [Example 15] are 1 to 50 nM and 1 to 20 nM.
Regarding `C=C[C@@H]1C[C@]1(NC(=O)[C@@H]1C[C@@H](Oc2ncc(OC)c3ccc(Cl)cc23)CN1C(=O)[C@@H](Nc1nc(-c2ccncc2)cs1)C(C)(C)C)C(=O)NS(=O)(=O)C1CC1` [Example 16], in assay [1] (setting [3]), the half-maximal effective concentration (EC50) worked out at 6.57 nM. Also, the IC50 in assay [2] (numeric values) turned out to be 1 nM.
With `C=C[C@@H]1C[C@]1(NC(=O)[C@@H]1C[C@@H](Oc2ncc(OC)c3ccc(Cl)cc23)CN1C(=O)[C@@H](Nc1nc(-c2ccc(OC(F)(F)F)cc2)cs1)C(C)(C)C)C(=O)NS(=O)(=O)C1CC1` [Example 17], the EC50 in assay [1] (setting [3]) stood at 8.95 nM. In assay [2] (numeric values), the concentration for half-maximal inhibition (IC50) worked out at 11 nM.
As to `C=C[C@@H]1C[C@]1(NC(=O)[C@@H]1C[C@@H](Oc2ncc(OC)c3ccc(Cl)cc23)CN1C(=O)[C@@H](Nc1nc(-c2ccc(Br)cc2)c(Br)s1)C(C)(C)C)C(=O)NS(=O)(=O)C1CC1` [Example 19], the EC50 in assay [1] (Huh-7, read-out: EC50 Range) lay in the range of 1 to 50 nM. In assay [2] (class symbols), the 50% inhibitory concentration (IC50) lay within 1 to 20 nM.
As for `C=C[C@@H]1C[C@]1(NC(=O)[C@@H]1C[C@@H](Oc2ncc(OC)c3ccc(Cl)cc23)CN1C(=O)[C@@H](Nc1nc(-c2ccccc2)cs1)C(C)(C)C)C(=O)NS(=O)(=O)C1CC1` [Example 20], the concentration for a half-maximal effect (EC50) in assay [1] (setting [3]) was found to be 3.9 nM. For the same compound, in assay [2] (numeric values), the IC50 was 3 nM.
